Source: ChEMBL document CHEMBL3217528, “Bicyclic imidazole-4-one derivatives: a new class of antagonists for the orphan G protein-coupled receptors GPR18 and GPR55” (Medchemcomm, 2014)
Calls of active or inactive are those of the source. The calls are words filed in the database; no cut-off is given here.

Tests used:
[1] = target: T1, G-protein coupled receptor 35 (Homo sapiens, UniProt Q9HC97); assay: Agonist activity at human GPR35 assessed as induction of beta-arrestin recruitment by beta-galactosidase enzyme fragment complementation method relative to zaprinast; parameters: concentration or dose not given beside the values
[2] = target: T2, N-arachidonyl glycine receptor (Homo sapiens) (UniProt Q14330); assay: Antagonist activity against human GPR18 expressed in CHO cells assessed as reduction in delta9-THC-induced beta-arrestin recruitment at 10 uM by beta-galactosidase enzyme fragment complementation method; type: cell-based
T2 sequence (whole entry): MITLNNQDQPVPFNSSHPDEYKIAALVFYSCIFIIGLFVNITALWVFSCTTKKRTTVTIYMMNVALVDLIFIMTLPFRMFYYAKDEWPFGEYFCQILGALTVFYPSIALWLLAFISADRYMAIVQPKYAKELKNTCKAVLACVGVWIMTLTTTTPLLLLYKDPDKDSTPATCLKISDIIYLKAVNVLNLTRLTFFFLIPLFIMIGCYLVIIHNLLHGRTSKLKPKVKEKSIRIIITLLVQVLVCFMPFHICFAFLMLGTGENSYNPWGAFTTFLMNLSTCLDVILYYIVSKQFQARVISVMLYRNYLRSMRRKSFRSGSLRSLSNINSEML

[3] = target: Cannabinoid receptor 1 (Rattus norvegicus) (UniProt P20272); assay: Displacement of [3H]CP55,940 from CB1 receptor in rat brain cortical membranes at 10 uM; type: cell membranes
[4] = target: T3, Cannabinoid receptor 1 (Homo sapiens, UniProt P21554); assay: Displacement of [3H]CP55,940 from human recombinant CB1 receptor expressed in CHO-K1 cells; type: cell-based
[5] = target: T4, Cannabinoid receptor 2 (Homo sapiens, UniProt P34972); assay: Displacement of [3H]CP55,940 from human recombinant CB2 receptor expressed in HEK293 cells at 10 uM; type: cell-based
[6] = target: T5, G-protein coupled receptor 55 (Homo sapiens, UniProt Q9Y2T6); assay: Antagonist activity against human GPR55 expressed in CHO cells assessed as reduction in LPI-induced beta-arrestin recruitment at 10 uM by beta-galactosidase enzyme fragment complementation method; type: cell-based
[7] = target: T3, Cannabinoid receptor 1; assay: Displacement of [3H]CP55,940 from human recombinant CB1 receptor expressed in CHO-K1 cells at 10 uM; type: cell-based
[8] = target: T2, N-arachidonyl glycine receptor (Homo sapiens); assay: Agonist activity at human GPR18 expressed in CHO cells assessed as induction of beta-arrestin recruitment by beta-galactosidase enzyme fragment complementation method relative to delta9-THC; type: cell-based; parameters: concentration or dose not given beside the values
[9] = target: T1, G-protein coupled receptor 35; assay: Antagonist activity at human GPR35 assessed as reduction of zaprinast-induced beta-arrestin recruitment by beta-galactosidase enzyme fragment complementation method
[10] = target: T6, N-arachidonyl glycine receptor (Homo sapiens, UniProt Q14330); assay: Antagonist activity against human GPR18 expressed in CHO cells assessed as reduction in delta9-THC-induced beta-arrestin recruitment by beta-galactosidase enzyme fragment complementation method; type: cell-based
T6 sequence (Q14330 whole entry): T2 sequence (whole entry)

[11] = target: T1, G-protein coupled receptor 35; assay: Agonist activity at human GPR35 assessed as induction of beta-arrestin recruitment by beta-galactosidase enzyme fragment complementation method
[12] = target: T1, G-protein coupled receptor 35; assay: Antagonist activity at human GPR35 assessed as reduction of zaprinast-induced beta-arrestin recruitment by beta-galactosidase enzyme fragment complementation method relative to untreated control; parameters: concentration or dose not given beside the values; conditions: concentration not given here
[13] = target: T5, G-protein coupled receptor 55; assay: Antagonist activity against human GPR55 expressed in CHO cells assessed as reduction in LPI-induced beta-arrestin recruitment by beta-galactosidase enzyme fragment complementation method; type: cell-based
[14] = target: T5, G-protein coupled receptor 55; assay: Agonist activity at human GPR55 expressed in CHO cells assessed as induction of LPI-induced beta-arrestin recruitment by beta-galactosidase enzyme fragment complementation method relative to LPI; type: cell-based; parameters: concentration or dose not given beside the values
[15] = target: T4, Cannabinoid receptor 2; assay: Displacement of [3H]CP55,940 from human recombinant CB2 receptor expressed in HEK293 cells; type: cell-based
[16] = target: Cannabinoid receptor 1 (Rattus norvegicus, UniProt P20272); assay: Displacement of [3H]CP55,940 from CB1 receptor in rat brain cortical membranes; type: cell membranes
[17] = target: T4, Cannabinoid receptor 2; assay: Agonist activity at human recombinant CB2 receptor expressed in CHO-K1 cell membranes assessed effect on forskolin-induced cAMP accumulation at 10 uM; type: functional, cell-based
[18] = target: T3, Cannabinoid receptor 1; assay: Agonist activity at human recombinant CB1 receptor expressed in CHO-K1 cell membranes assessed effect on forskolin-induced cAMP accumulation at 10 uM; type: functional, cell-based
[19] = target: Cannabinoid receptor 1 (Rattus norvegicus) (UniProt P20272); assay: Intrinsic activity at CB1 receptor in rat brain cortical membranes assessed as stimulation of [35S]GTPgammaS binding at 10 uM by liquid scintillation counting method relative to CP55,940; type: functional, cell membranes
[20] = target: T3, Cannabinoid receptor 1; assay: Intrinsic activity at human recombinant CB1 receptor expressed in HEK293 cell membranes assessed as stimulation of [35S]GTPgammaS binding at 10 uM by liquid scintillation counting method relative to CP55,940; type: functional
[21] = target: T5, G-protein coupled receptor 55; assay: Allosteric antagonist activity against human GPR55 expressed in CHO cells assessed as induction of rightward shift of concentration response curve of LPI-induced beta-arrestin recruitment at 10 uM by beta-galactosidase enzyme fragment complementation method; type: cell-based
[22] = Displacement of [3H]diazepam from GABAA receptor in rat brain cortical membranes; type: cell membranes

T4 sequence (P34972 whole entry, the tested form may be a part): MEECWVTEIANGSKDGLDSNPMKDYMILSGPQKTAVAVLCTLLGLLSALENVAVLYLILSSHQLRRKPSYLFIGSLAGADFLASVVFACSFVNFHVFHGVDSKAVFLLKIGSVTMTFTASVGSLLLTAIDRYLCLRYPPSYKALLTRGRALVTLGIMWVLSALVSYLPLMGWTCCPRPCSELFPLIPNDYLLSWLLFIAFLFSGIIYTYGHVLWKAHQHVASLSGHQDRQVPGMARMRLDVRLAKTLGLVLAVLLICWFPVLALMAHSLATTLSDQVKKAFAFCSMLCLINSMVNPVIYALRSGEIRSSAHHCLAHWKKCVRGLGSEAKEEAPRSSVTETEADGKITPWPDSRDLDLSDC
T3 sequence (P21554 whole entry): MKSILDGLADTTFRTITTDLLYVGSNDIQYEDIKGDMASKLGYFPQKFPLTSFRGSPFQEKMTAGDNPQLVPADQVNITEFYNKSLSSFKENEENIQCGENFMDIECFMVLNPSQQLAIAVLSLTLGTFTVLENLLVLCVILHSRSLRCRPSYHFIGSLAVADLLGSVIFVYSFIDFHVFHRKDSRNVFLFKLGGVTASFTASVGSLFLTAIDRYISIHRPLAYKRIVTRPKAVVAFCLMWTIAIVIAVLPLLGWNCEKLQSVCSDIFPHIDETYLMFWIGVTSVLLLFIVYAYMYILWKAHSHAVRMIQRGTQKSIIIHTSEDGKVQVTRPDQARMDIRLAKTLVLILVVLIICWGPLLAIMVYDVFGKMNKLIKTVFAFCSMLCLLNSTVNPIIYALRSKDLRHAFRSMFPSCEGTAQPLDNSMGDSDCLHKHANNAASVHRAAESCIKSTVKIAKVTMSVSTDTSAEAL
Chain of Cannabinoid receptor 1 (Rattus norvegicus) (P20272 whole entry): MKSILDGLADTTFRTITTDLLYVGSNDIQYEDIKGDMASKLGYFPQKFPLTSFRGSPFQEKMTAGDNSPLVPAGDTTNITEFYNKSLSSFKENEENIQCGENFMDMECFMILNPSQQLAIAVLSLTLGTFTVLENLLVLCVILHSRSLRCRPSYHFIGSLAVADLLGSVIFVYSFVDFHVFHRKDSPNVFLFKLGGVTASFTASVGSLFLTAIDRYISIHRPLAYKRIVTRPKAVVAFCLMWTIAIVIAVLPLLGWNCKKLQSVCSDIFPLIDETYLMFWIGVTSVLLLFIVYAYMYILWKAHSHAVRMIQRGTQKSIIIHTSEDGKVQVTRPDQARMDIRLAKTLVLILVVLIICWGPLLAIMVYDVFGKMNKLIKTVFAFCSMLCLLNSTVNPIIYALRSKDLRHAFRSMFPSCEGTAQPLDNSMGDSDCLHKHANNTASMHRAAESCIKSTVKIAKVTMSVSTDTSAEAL
Chain of Cannabinoid receptor 1 (Rattus norvegicus, UniProt P20272) (P20272 whole entry): as above
T1 sequence (Q9HC97 whole entry, the tested form may be a part): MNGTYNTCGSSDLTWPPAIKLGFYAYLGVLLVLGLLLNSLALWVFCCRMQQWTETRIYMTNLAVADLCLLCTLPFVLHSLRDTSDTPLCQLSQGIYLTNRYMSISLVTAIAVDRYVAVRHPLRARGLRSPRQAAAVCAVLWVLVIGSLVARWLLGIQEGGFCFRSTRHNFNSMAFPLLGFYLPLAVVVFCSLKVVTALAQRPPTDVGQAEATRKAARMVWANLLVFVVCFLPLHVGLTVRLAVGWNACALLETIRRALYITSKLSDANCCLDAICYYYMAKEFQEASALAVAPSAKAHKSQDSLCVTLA
T5 sequence (Q9Y2T6 whole entry, the tested form may be a part): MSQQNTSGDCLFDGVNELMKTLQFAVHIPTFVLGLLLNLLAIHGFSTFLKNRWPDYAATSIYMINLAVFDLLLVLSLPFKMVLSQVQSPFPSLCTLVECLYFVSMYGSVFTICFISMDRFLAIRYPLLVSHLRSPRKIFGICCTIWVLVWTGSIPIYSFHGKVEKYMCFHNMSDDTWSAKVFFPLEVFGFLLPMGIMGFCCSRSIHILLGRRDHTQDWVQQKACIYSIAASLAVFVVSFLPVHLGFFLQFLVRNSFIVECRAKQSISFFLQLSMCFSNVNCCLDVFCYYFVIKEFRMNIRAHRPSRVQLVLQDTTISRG

| SMILES | Activity [1] | inhibition [2] | Ki [4] | inhibition [6] | inhibition [7] | Activity [8] | IC50 [9] | IC50 [10] | EC50 [11] | inhibition [12] | IC50 [13] | Activity [14] | Ki [15] | Ki [16] | Activity [17] | Intrinsic activity [19] | Intrinsic activity [20] | inhibition [3] | inhibition [5] | further results |
| --- | --- | --- | --- | --- | --- | --- | --- | --- | --- | --- | --- | --- | --- | --- | --- | --- | --- | --- | --- | --- |
| O=C1/C(=C/c2ccccc2)N=C2SCCCN12 | -5% | 5% | > 10 µM | 25% | 40% | 7% | > 10 µM | > 10 µM | > 10 µM | 12% | > 10 µM | 32% | > 10 µM | > 10 µM |  |  |  | 1% | 18% |  |
| O=C1/C(=C/c2cccc(OCc3ccc(F)cc3)c2)N=C2SCCCCN12 |  | 5% | 0.85 µM | 12% |  | 0% |  | > 10 µM |  |  | > 10 µM | 19% | 1.56 µM | 0.73 µM | inactive | -16% | -16% |  |  | Activity [18]: inactive |
| O=C1/C(=C/c2cccc(Cl)c2Cl)N=C2SCCCN12 |  | 0% | > 10 µM |  | 12% | 17% |  | > 10 µM |  |  | 6.91 µM | 3% | > 10 µM | > 10 µM |  |  |  | 6% | 40% | Allosteric antagonist activity [21]: Active |
| O=C1N2CCCCSC2=NC1(c1ccccc1)c1ccccc1 |  | 0% | 1.34 µM | 6% |  | 15% |  | > 10 µM |  |  | > 10 µM | 54% | > 10 µM | 3.94 µM |  | -15% | -16% |  | 14% | Activity [18]: inactive |
| O=C1/C(=C/c2cccc(OCc3ccccc3)c2)N=C2SCCCN12 |  |  | > 10 µM | 0% | 25% | 0% |  | 7.22 µM |  |  | > 10 µM | 37% | 1.11 µM | 4.22 µM | inactive | -9% | -33% |  |  |  |
| O=C1/C(=C/c2cccc(OCc3cccc(Cl)c3)c2)N=C2SCCCCN12 | -3% | 15% | 2.16 µM | 27% |  | 0% | > 10 µM | > 10 µM | > 10 µM | 25% | > 10 µM | 52% | > 10 µM | 2.46 µM |  | -12% | -14% |  | 37% |  |
| COc1ccc(/C=C2\N=C3SCCCN3C2=O)c(OC)c1 | -7% | 7% | ≥ 10 µM |  | 42% | 0% | > 10 µM | > 10 µM | > 10 µM | 20% | 9.77 µM | 0% | 2.57 µM | > 10 µM |  |  |  | 12% |  |  |
| O=C1/C(=C/c2cccc(OCc3ccccc3)c2)N=C2SCCCCN12 |  | 49% | 2.13 µM | 21% |  | 7% |  | 10 µM |  |  | > 10 µM | 4% | 1.81 µM | 2.01 µM | inactive | -26% | -35% |  |  |  |

Continued, in another order:

| Activity [1] | inhibition [2] | Ki [4] | inhibition [6] | inhibition [7] | Activity [8] | IC50 [9] | IC50 [10] | EC50 [11] | inhibition [12] | IC50 [13] | Activity [14] | Ki [15] | Ki [16] | Activity [17] | Intrinsic activity [19] | Intrinsic activity [20] | SMILES | inhibition [3] | inhibition [5] | further results |
| --- | --- | --- | --- | --- | --- | --- | --- | --- | --- | --- | --- | --- | --- | --- | --- | --- | --- | --- | --- | --- |
|  |  | 2.29 µM | 43% |  | 0% |  | 6.48 µM |  |  | ≥ 10 µM | 7% | 0.98 µM | > 10 µM | inactive |  |  | O=C1/C(=C/c2cccc(OCc3ccccc3Cl)c2)N=C2SCCCCN12 | 37% |  |  |
|  |  | 3.18 µM | 33% |  | 0% |  | 4.61 µM |  |  | > 10 µM | 16% | 1.65 µM | 2.53 µM | inactive | -21% | -44% | O=C1/C(=C/c2cccc(OCc3ccc(Cl)cc3Cl)c2)N=C2SCCCCN12 |  |  | Ki [22]: > 10 µM |
|  |  | 2.09 µM | 0% |  | 0% |  | 2.55 µM |  |  | > 10 µM | 12% | 0.95 µM | 0.55 µM | inactive | -10% | -51% | O=C1/C(=C/c2cccc(OCc3ccc(Cl)cc3Cl)c2)N=C2SCCCN12 |  |  | Activity [18]: inactive; Ki [22]: > 10 µM |
| -1% |  | > 10 µM | 0% | 0% | 0% | > 10 µM | 0.279 µM | > 10 µM | 3% | > 10 µM | 21% | 4.03 µM | 8.24 µM |  | -7% | -16% | O=C1/C(=C/c2cccc(OCc3ccc(Cl)cc3)c2)N=C2SCCCN12 |  |  | Ki [22]: > 10 µM |
